Tests used:
[1] = cited from earlier work; for decrease in concentrations: 4 hours after administration; for decrease in concentrations / time to maximum plasma concentration / accumulation in tissues: rats; for decrease in concentrations / accumulation in tissues: oral; for toxic effects: administrations up to 100mg/kg; for time to maximum plasma concentration: oral administration of Portulaca oleracea L extracts
erythrocytes = assay: Erythrocyte deformability by ektacytometer (laser diffraction) after 4-week treatment; assay type: in vivo, Wistar rats; conditions: 37°C
Text: (§1) 5 experimental groups were formed to observe the effects of aurantiamide acetate. Eight […] male Wistar rats were used in each group. The experimental groups created are as follows: • 1. Control group, • 2. SHAM operated (the abdominal cavity is opened and closed by suturing again without any procedure) group, • 3. Aurantiamide acetate (ASP) administered group, • 4. Hypertension (HT) group, • 5. Hypertension+aurantiamide acetate (HT+ASP) administered group.
(§2) Aurantiamide acetate was applied to the ASP and HT+ASP groups among the experimental groups. A 100 mM stock was prepared by dissolving 10 mg of aurantiamide acetate in 225 µl of dimethyl sulfoxide (DMSO). For 200 g rat, µl of aurantiamide acetate was administered in 100 µl. Weekly 2.5 mg/kg of aurantiamide acetate was administered intraperitoneally for 4 weeks, 0.5 mg/kg daily, 5 days a week. In total, each rat was given 10 mg/kg of aurantiamide acetate. […]
Erythrocyte deformability was measured in the experimental groups. […] Erythrocyte deformability was evaluated by laser diffraction analysis at various fluid shear forces. […] Thus, the deformability of erythrocytes in response to increased shear forces was determined. […] The erythrocyte deformability was calculated by the system as an elongation index. Elongation index (EI) values were measured between nine shear forces (0.30 - 75.02 Pa). […]

[2] = Change in body weight during the administration period; assay type: in vivo, Wistar rats; conditions: between the experimental groups, Day 0 and end of 4th week
Text: as §1
as §2, with “acetate. To eliminate the effects of daily intraperitoneal (i.p.) injection; equal volumes (100 µl) of i.p.DMSO were injected into the rats of control group, SHAM-operated group, and hypertension group.” for “acetate.”
The initial weights of the rats were measured in the range of 180-200 g. The weights of each rat before the experiment (Day 0) and after the experiment (at the end of the 4th week) were recorded. […]

Thoracic Aorta = assay: Vascular tone of isolated thoracic aorta rings in organ bath after 4-week treatment (KCl, Phe, ACh and SNP protocols); assay type: in vivo, Wistar rats
Text: as §1
(§3) Aurantiamide acetate was applied to the ASP and HT+ASP groups among the experimental groups. A 100 mM stock was prepared by dissolving 10 mg of aurantiamide acetate in 225 µl of dimethyl sulfoxide (DMSO). For 200 g rat, µl of aurantiamide acetate was administered in 100 µl. Weekly 2.5 mg/kg of aurantiamide acetate was administered intraperitoneally for 4 weeks, 0.5 mg/kg daily, 5 days a week. In total, each rat was given 10 mg/kg of aurantiamide acetate. To eliminate the effects of daily intraperitoneal (i.p.) injection; equal volumes (100 µl) of i.p.DMSO were injected into the rats of control group, SHAM-operated group, and hypertension group. Changes in body weight, blood pressure values, erythrocyte deformability, vascular isolation, and vascular tone were investigated in the experimental groups during the experiment.
Vascular isolation was investigated in the experimental groups. The rats in all experimental groups were anesthetized with intraperitoneal ketamine/xylazine (45 mg/kg ketamine and 10 mg/kg xylazine) anesthesia at the end of the 4-week experimental period. After their abdomens were opened, blood was drawn from their abdominal aorta to obtain plasma as well as for use in measuring deformability, and rats were sacrificed by anemia. The thoracic aorta was quickly opened and the thoracic aorta was separated from the other tissues, and removed. As soon as the thoracic aorta tissue is removed, it was taken into a beaker containing Krebs solution (110 mM sodium chloride (NaCl), 5 mM potassium chloride (KCI), 24 mM sodium bicarbonate (NaHCO3), 1 mM mono potassium phosphate (KH2PO4), 1 mM magnesium sulfate heptahydrate (MgSO4.7H2O), 2.5 mM calcium chloride (CaCl2), 10 mM glucose, 0.02 mM ethylenediamine tetraacetic acid (EDTA); pH=7.4). After the tissue was washed with cold Krebs, the dissection stage was started. For the microdissection stage, the thoracic aorta, taken in a petri dish containing cold Krebs, is fixed to the medium, and fat and connective tissue were removed from the artery at the appropriate magnification by using a dissecting microscope. The isolated thoracic aorta is divided into rings of appropriate length. In addition, the rest of the aorta tissue was removed and stored under appropriate conditions for histological and biochemical parameters. Vascular tone was evaluated in the experimental groups. Vascular tone in the experimental groups was analyzed as in the previous work of the project team. After the isolated thoracic aorta is divided into 2 - 2.5 mm long rings; it was gasified with a gas mixture containing 95% O2 - 5% CO2, and it was placed in an organ bath with 10 ml of Krebs solution at 37°C and pH 7.4. After the vessel rings are attached to the isometric transducer by means of a tight rope by hanging them on steel wires, they were washed every 15 minutes under 1 gram relaxation tension and rested for a total of 60 minutes. If the tension changed after each wash, attention was paid to bring it back to 1 gram of tension. After a one-hour relaxation tension (rest period), the vitalization stage, which is the prepulse stage, was applied to the vessels. For this process, after applying Krebs solution containing 20 mM potassium chloride (KCI), phenylephrine (Phe) was added at a concentration of 10^-7 M. This process was repeated 3 times in succession. After the vitalization procedure, the vessels were washed with Krebs solution and an additional 30-minute resting period was started. […]

[3] = tested on: 2K-1C renovascular hypertension; assay: Blood pressure by non-invasive tail-cuff method in rats, Goldblatt two kidneys single clip (2K-1C) hypertension model; assay type: in vivo, Wistar rats
Text: as §1
Hypertension was induced in rats with the Goldblatt model with two kidneys and a single clip (2K-1C). In this model, no operation was performed on the right kidney. The left renal artery was narrowed to 0.22 mm in diameter. In the surgical hypertension model created, renin secretion by the kidney with decreased blood flow led to increased angiotensin II (ANG II) formation and therefore an increase in blood pressure. Sodium excretion by the intact contralateral kidney increases as blood pressure increases (pressure natriuresis), therefore, there was no sodium retention. The rats were anesthetized intraperitoneally before the operation. In the creation of the hypertension model, 90 mg/kg ketamine and 10 mg/kg xylazine were administered intraperitoneally for anesthesia. After anesthesia, the abdomens of the rats were shaved and disinfected with betadine. After disinfection, a midline incision was made and the left kidney was exposed. The left renal artery was isolated from the renal vein, and to induce 2K-1C renovascular hypertension, the circumference of the left renal artery was narrowed gently to 0.22 mm in diameter by 5/0 non-absorbable silicone-coated silk sutures The same procedure was applied to SHAM operated group rats, but the left renal artery was not narrowed. Postoperatively, the peritoneum was sutured with 3/0 absorbable polyglycan suture and the skin layer was sutured with 3/0 non-absorbable silk suture. In the hypertension model, it was waited for 1 week to observe the increase in blood pressure in the hypertension and hypertension+aurantiamide acetate groups, and then blood pressure was measured.
The blood pressures of the animals were measured by the non-invasive tail-cuff method. An occlusive cuff and a piezoelectric impact sensor are placed around the tail. Arterial blood pressure measurements were taken weekly at the same time of day (9:00 am to 12:00 am) to avoid influencing the circadian cycle. Basal blood pressure was measured after delivery of each rat, and blood pressures were recorded regularly every week for 4 weeks until sacrifice. The data acquisition system reported blood pressure (mmHg) as systolic, diastolic, and mean. Each measurement was repeated three times and the average of these three data was taken.
as §3
Blood pressure values were examined in the experimental groups during the experimental period.

[4] = aurantiamide acetate group (no hypertension) vs control and SHAM, p>0.05

O=C(N[C@@H](Cc1ccccc1)C(=O)N[C@H](CO)Cc1ccccc1)c1ccccc1 [aurantiamide]
decrease in concentrations [1]: approximately 90%
toxic effects [1]: No toxic effects
time to maximum plasma concentration [1]: approximately 12 minutes
accumulation in tissues [1]: no long-term accumulation

CC(=O)OC[C@H](Cc1ccccc1)NC(=O)[C@H](Cc1ccccc1)NC(=O)c1ccccc1 [aurantiamide acetate]
erythrocyte deformability, Elmax values (erythrocytes; [4]): no difference
erythrocyte deformability (erythrocytes; hypertension + aurantiamide acetate group compared to hypertension group, p<0.01): significant increase
body weights before and after [2]: no significant difference
ACh-mediated relaxation response (endothelium-dependent) (Thoracic Aorta; [4]): no difference
Phe-mediated contractile response (Thoracic Aorta; [4]): no differences
SNP-mediated relaxation response (endothelium-independent) (Thoracic Aorta; [4]): no statistical difference
KCl-mediated contractile response (Thoracic Aorta; aurantiamide acetate group (no hypertension) vs control, SHAM and hypertension groups, 20, 40 and 80 mM KCl, p>0.05): no differences
Phe-mediated contractile response (Thoracic Aorta; hypertension+aurantiamide acetate group compared to hypertension group, p<0.05 and p<0.001): significantly reduced
SNP-mediated relaxation response (endothelium-independent) (Thoracic Aorta; hypertension+aurantiamide acetate group compared to hypertension group, p>0.05): no difference
KCl-mediated contractile response (Thoracic Aorta; hypertension+aurantiamide acetate group compared to the other groups, increasing KCl concentrations, p<0.001): significantly lower
ACh-mediated relaxation response (endothelium-dependent) (Thoracic Aorta; hypertension+aurantiamide acetate group vs hypertension group, p<0.05 and p<0.01): improvement
decrease in concentrations [1]: approximately 90%
toxic effects [1]: No toxic effects
time to maximum plasma concentration [1]: approximately 12 minutes
accumulation in tissues [1]: no long-term accumulation
mean arterial blood pressure ([3]; ASP group (no hypertension), second week, compared with control and SHAM operated groups, p<0.05, 0.5 mg/kg daily i.p., 5 days a week): significantly lower
mean arterial blood pressure ([3]; ASP group (no hypertension), third week, compared with control group, p<0.05, 0.5 mg/kg daily i.p., 5 days a week): significantly lower
mean arterial blood pressure ([3]; HT+ASP group, last week (week 4), compared to HT group, p<0.001): significant decrease
mean arterial blood pressure ([3]; HT+ASP group, second week, compared to HT group, p<0.001, 0.5 mg/kg daily i.p., 5 days a week): significant decrease
mean arterial blood pressure ([3]; HT+ASP group, second week, compared with control, SHAM and ASP groups, p<0.001): significantly higher
mean arterial blood pressure ([3]; HT+ASP group, third week, compared to HT group, p<0.001): significant decrease
mean arterial blood pressure ([3]; HT+ASP group, third week, compared with ASP group only, p<0.001): significantly higher
mean arterial blood pressure ([3]; HT+ASP group, week 4, no difference from control, SHAM and ASP groups (p>0.05)): reduced to basal levels
mean arterial blood pressure ([3]; within ASP group according to the weeks, p>0.05): did not show a significant difference
